Source: the supplement of paper PMC8612539
Converted amounts (≈) assume the structure as drawn.

Tested on: Histophilus somni
Assay: minimum inhibitory concentration (MIC)
Protocol: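 Broth microdilution MIC (Sensititre BOPO7F bovine plate, CLSI methods) of 19 antimicrobials against field isolates of P. multocida, M. haemolytica, H. somni (deep nasopharyngeal swabs) and E. coli, Enterococcus spp. (rectal swabs) from weaned dairy heifers. Incubation 16-24 h at 35 C. MIC is the lowest concentration preventing visible growth. Values with <= or > lie at the tested range limits. Trimethoprim-sulfamethoxazole is given as the trimethoprim component of a 1:19 mixture.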

CNC(C)C1CCC(N)C(OC2C(N)CC(N)C(OC3OCC(C)(O)C(NC)C3O)C2O)O1 (configuration not stated) [Gentamicin]
Conditions | minimum inhibitory concentration [µg/mL]
isolate (source animal id): 3 | 8 (≈ 16.8 µM)
isolate (source animal id): 4 | 8 (≈ 16.8 µM)
isolate (source animal id): 7 | 4 (≈ 8.38 µM)
isolate (source animal id): 14 | 4 (≈ 8.38 µM)
isolate (source animal id): 15 | 16 (≈ 33.5 µM)
isolate (source animal id): 17 | ≤ 1
isolate (source animal id): 18 | 16 (≈ 33.5 µM)
isolate (source animal id): 20 | ≤ 1
isolate (source animal id): 23 | 16 (≈ 33.5 µM)
isolate (source animal id): 45 | 4 (≈ 8.38 µM)
isolate (source animal id): 53 | 4 (≈ 8.38 µM)
isolate (source animal id): 83 | 16 (≈ 33.5 µM)
isolate (source animal id): 88 | 4 (≈ 8.38 µM)
isolate (source animal id): 92 | 16 (≈ 33.5 µM)
isolate (source animal id): 93 | 4 (≈ 8.38 µM)
isolate (source animal id): 99 | 16 (≈ 33.5 µM)
isolate (source animal id): 100 | 16 (≈ 33.5 µM)
isolate (source animal id): 105 | 16 (≈ 33.5 µM)
isolate (source animal id): 107 | 16 (≈ 33.5 µM)
isolate (source animal id): 108 | 16 (≈ 33.5 µM)
isolate (source animal id): 109 | 16 (≈ 33.5 µM)
isolate (source animal id): 110 | 16 (≈ 33.5 µM)
isolate (source animal id): 117 | 4 (≈ 8.38 µM)
isolate (source animal id): 121 | 4 (≈ 8.38 µM)
isolate (source animal id): 123 | 8 (≈ 16.8 µM)
isolate (source animal id): 124 | 8 (≈ 16.8 µM)
isolate (source animal id): 127 | 8 (≈ 16.8 µM)
isolate (source animal id): 128 | 8 (≈ 16.8 µM)
isolate (source animal id): 130 | > 16
isolate (source animal id): 132 | 8 (≈ 16.8 µM)
isolate (source animal id): 135 | 8 (≈ 16.8 µM)
isolate (source animal id): 140 | 8 (≈ 16.8 µM)
isolate (source animal id): 141 | 4 (≈ 8.38 µM)
isolate (source animal id): 142 | 8 (≈ 16.8 µM)
isolate (source animal id): 144 | 8 (≈ 16.8 µM)
isolate (source animal id): 146 | > 16
isolate (source animal id): 147 | 16 (≈ 33.5 µM)
isolate (source animal id): 151 | 8 (≈ 16.8 µM)
isolate (source animal id): 153 | 8 (≈ 16.8 µM)
isolate (source animal id): 154 | 16 (≈ 33.5 µM)
isolate (source animal id): 156 | 16 (≈ 33.5 µM)
isolate (source animal id): 157 | 8 (≈ 16.8 µM)
isolate (source animal id): 176 | ≤ 1
isolate (source animal id): 183 | ≤ 1
isolate (source animal id): 186 | ≤ 1
isolate (source animal id): 196 | 8 (≈ 16.8 µM)
isolate (source animal id): 198 | 8 (≈ 16.8 µM)
isolate (source animal id): 200 | 8 (≈ 16.8 µM)
isolate (source animal id): 206 | 8 (≈ 16.8 µM)
isolate (source animal id): 208 | 8 (≈ 16.8 µM)
isolate (source animal id): 210 | 8 (≈ 16.8 µM)
isolate (source animal id): 212 | 4 (≈ 8.38 µM)
isolate (source animal id): 215 | 8 (≈ 16.8 µM)
isolate (source animal id): 216 | 8 (≈ 16.8 µM)
isolate (source animal id): 218 | 8 (≈ 16.8 µM)
isolate (source animal id): 219 | 8 (≈ 16.8 µM)
isolate (source animal id): 224 | 8 (≈ 16.8 µM)
isolate (source animal id): 228 | 2 (≈ 4.19 µM)
isolate (source animal id): 230 | ≤ 1
isolate (source animal id): 233 | 2 (≈ 4.19 µM)
isolate (source animal id): 238 | ≤ 1
isolate (source animal id): 239 | 2 (≈ 4.19 µM)
isolate (source animal id): 241 | 2 (≈ 4.19 µM)
isolate (source animal id): 242 | 2 (≈ 4.19 µM)
isolate (source animal id): 243 | ≤ 1
isolate (source animal id): 245 | ≤ 1
isolate (source animal id): 246 | 2 (≈ 4.19 µM)
isolate (source animal id): 247 | ≤ 1
isolate (source animal id): 248 | ≤ 1
isolate (source animal id): 250 | ≤ 1
isolate (source animal id): 251 | ≤ 1
isolate (source animal id): 252 | 2 (≈ 4.19 µM)
isolate (source animal id): 254 | ≤ 1
isolate (source animal id): 258 | 4 (≈ 8.38 µM)
isolate (source animal id): 259 | 8 (≈ 16.8 µM)
isolate (source animal id): 262 | 4 (≈ 8.38 µM)
isolate (source animal id): 264 | 4 (≈ 8.38 µM)
isolate (source animal id): 265 | > 16
isolate (source animal id): 266 | 8 (≈ 16.8 µM)
isolate (source animal id): 267 | 8 (≈ 16.8 µM)
isolate (source animal id): 269 | 4 (≈ 8.38 µM)
isolate (source animal id): 271 | 8 (≈ 16.8 µM)
isolate (source animal id): 272 | > 16
isolate (source animal id): 274 | 4 (≈ 8.38 µM)
isolate (source animal id): 276 | ≤ 1
isolate (source animal id): 278 | 8 (≈ 16.8 µM)
isolate (source animal id): 280 | > 16
isolate (source animal id): 281 | 8 (≈ 16.8 µM)
isolate (source animal id): 283 | 4 (≈ 8.38 µM)
isolate (source animal id): 288 | 16 (≈ 33.5 µM)
isolate (source animal id): 291 | 8 (≈ 16.8 µM)
isolate (source animal id): 292 | 16 (≈ 33.5 µM)
isolate (source animal id): 296 | 8 (≈ 16.8 µM)
isolate (source animal id): 306 | 8 (≈ 16.8 µM)
isolate (source animal id): 336 | 16 (≈ 33.5 µM)
isolate (source animal id): 337 | 16 (≈ 33.5 µM)
isolate (source animal id): 341 | 8 (≈ 16.8 µM)
